Test results as given in paper PMC5185321 (Journal of medicinal chemistry, 2015).

Tests used:
[1] = Multipoint rat liver microsomal stability; type: in vitro ADME
Plasma protein binding = type: in vitro ADME
human ALDH1B1 = target: T1, human ALDH1B1 (Homo sapiens, UniProt P30837); test: biochemical
T1 sequence (P30837 18-517): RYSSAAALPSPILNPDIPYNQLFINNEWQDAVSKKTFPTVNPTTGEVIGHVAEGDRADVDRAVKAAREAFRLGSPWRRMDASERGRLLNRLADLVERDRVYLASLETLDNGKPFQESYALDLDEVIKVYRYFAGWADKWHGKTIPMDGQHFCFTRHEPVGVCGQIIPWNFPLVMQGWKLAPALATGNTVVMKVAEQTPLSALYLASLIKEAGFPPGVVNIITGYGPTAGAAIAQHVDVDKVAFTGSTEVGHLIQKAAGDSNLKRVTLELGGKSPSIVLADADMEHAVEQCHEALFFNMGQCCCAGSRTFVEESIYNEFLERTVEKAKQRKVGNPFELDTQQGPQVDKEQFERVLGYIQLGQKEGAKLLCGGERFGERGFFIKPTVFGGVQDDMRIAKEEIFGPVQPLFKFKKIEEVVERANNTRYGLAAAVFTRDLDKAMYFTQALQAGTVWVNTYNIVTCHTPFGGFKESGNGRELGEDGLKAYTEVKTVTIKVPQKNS

[2] = Pharmacokinetics in CD1 mice; type: in vivo; details: CD1, mouse
[3] = In vitro stability in CD1 mouse plasma; type: in vitro ADME
[4] = microsomes
[5] = test system: more than 450 human kinases; test: DiscoveRx KINOMEscan off-target kinase profiling; type: binding; details: 10 µM, hit = inhibition of ≥55%
[6] = CD1 mouse liver microsomal stability; type: in vitro ADME; details: mouse liver microsomes
[7] = High-throughput RLM stability; type: in vitro ADME; details: rat, rat liver microsomes, pH 7.4
[8] = test system: 168 GPCRs covering 60 receptor families; test: gpcrMAX panel profiling; type: cell-based; details: agonist and antagonist mode
Caco-2 permeability = type: in vitro ADME; details: human
hALDH1A1 [9] = target: T2, hALDH1A1 (Homo sapiens, UniProt P00352); test: biochemical
T2 sequence (P00352 1-501): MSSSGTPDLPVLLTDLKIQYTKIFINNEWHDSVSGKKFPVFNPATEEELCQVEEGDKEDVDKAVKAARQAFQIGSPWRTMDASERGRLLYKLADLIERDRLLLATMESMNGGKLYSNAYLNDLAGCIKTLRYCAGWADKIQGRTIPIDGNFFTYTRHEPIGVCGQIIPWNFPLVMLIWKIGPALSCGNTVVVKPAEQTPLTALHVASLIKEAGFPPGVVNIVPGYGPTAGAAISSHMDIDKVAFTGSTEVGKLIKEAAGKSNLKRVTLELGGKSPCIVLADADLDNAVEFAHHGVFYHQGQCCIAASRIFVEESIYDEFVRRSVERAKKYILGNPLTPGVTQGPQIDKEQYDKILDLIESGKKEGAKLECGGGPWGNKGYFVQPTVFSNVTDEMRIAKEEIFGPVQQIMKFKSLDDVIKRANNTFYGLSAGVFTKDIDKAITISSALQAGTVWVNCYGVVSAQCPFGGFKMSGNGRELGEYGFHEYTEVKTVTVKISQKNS

human ALDH2 = target: T3, human ALDH2 (Homo sapiens, UniProt P05091); test: ALDH enzymatic assay, ALDH2; type: biochemical
T3 sequence (P05091 18-517): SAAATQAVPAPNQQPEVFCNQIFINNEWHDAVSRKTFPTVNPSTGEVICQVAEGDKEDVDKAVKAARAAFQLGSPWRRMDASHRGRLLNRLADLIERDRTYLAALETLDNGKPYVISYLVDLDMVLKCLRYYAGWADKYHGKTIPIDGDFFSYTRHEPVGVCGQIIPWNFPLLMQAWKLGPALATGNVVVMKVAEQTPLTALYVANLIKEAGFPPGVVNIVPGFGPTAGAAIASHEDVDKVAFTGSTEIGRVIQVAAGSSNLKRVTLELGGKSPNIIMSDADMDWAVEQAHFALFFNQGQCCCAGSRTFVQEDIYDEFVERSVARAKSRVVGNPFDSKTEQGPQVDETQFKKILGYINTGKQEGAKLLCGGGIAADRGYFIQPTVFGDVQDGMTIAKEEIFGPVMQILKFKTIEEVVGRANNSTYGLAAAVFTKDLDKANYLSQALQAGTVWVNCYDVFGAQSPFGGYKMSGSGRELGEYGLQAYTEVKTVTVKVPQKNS

hALDH1A1 [10] = target: T2, hALDH1A1; test: Primary qHTS against hALDH1A1; type: biochemical
physchem = details: aqueous medium at pH 7.4, pH 7.4, aqueous buffer, kinetic from dmso stock
cocaine-seeking behavior = details: cited from earlier work
ALDH2 = details: read-out: ALDH2 inhibition; cited from earlier work

CC(C)CCn1c(CN2CCN(C(=O)C3CC3)CC2)nc2c1c(=O)n(C)c(=O)n2C [Compound 64, 8-((4-(cyclopropanecarbonyl)piperazin-1-yl)methyl)-7-isopentyl-1,3-dimethyl-1H-purine-2,6(3H,7H)-dione]
multipoint rat liver microsomal stability [1]: 84 min | plasma protein binding (Plasma protein binding): 68.6 % bound | IC50 (human ALDH1B1): > 57000 nM | AUC(0-t) ([2]; brain, po, 10 mg/kg): 261 ng·h/mL | Cmax ([2]; brain, po, 10 mg/kg): 1130 ng/mL | half-life ([2]; brain, po, 10 mg/kg): 24 min | AUC(0-t) ([2]; liver, po, 10 mg/kg): 1880 ng·h/mL | Cmax ([2]; liver, po, 10 mg/kg): 2690 ng/mL | half-life ([2]; liver, po, 10 mg/kg): 24 min | half-life ([2]; plasma, intravenous, oral, intraperitoneal): < 60 min | AUC(0-t) ([2]; plasma, ip, 30 mg/kg): 5670 ng·h/mL | Cmax ([2]; plasma, ip, 30 mg/kg): 8080 ng/mL | bioavailability ([2]; plasma, ip, 30 mg/kg): 100% | half-life ([2]; plasma, ip, 30 mg/kg): 42 min | AUC(0-t) ([2]; plasma, iv, 2 mg/kg): 332 ng·h/mL | C0 ([2]; plasma, iv, 2 mg/kg): 2070 ng/mL | Vd ([2]; plasma, iv, 2 mg/kg): 1.8 L/kg | clearance ([2]; plasma, iv, 2 mg/kg): 98 mL/min/kg | half-life ([2]; plasma, iv, 2 mg/kg): 30 min | AUC(0-t) ([2]; plasma, po, 10 mg/kg): 484 ng·h/mL | Cmax ([2]; plasma, po, 10 mg/kg): 696 ng/mL | bioavailability ([2]; plasma, po, 10 mg/kg): 29% | half-life ([2]; plasma, po, 10 mg/kg): 24 min | in vitro stability in CD1 mouse plasma [3]: > 60 min | human liver microsomal stability (HLM) [4]: > 120 min | off-target kinase activity (KINOMEscan) [5]: no significant hits | half-life [6]: 17 min | half-life at 1 µM [7]: > 30 min | gpcrMAX off-target activity [8]: very little activity in either agonist or antagonist mode | Papp A→B (Caco-2 permeability): 19.3 ×10⁻⁶ cm/s | Papp B→A (Caco-2 permeability): 19.6 ×10⁻⁶ cm/s

Cc1cccc(Cn2c(OC3CCN(c4nccc(C)n4)CC3)nc3c2c(=O)n(C)c(=O)n3C)c1 [Compound 19, 1,3-dimethyl-7-(3-methylbenzyl)-8-((1-(4-methylpyrimidin-2-yl)-piperidin-4-yl)oxy)-1H-purine-2,6(3H,7H)-dione]
IC50 (hALDH1A1 [9]): 19200 ± 3300 nM | half-life at 1 µM [7]: 1 min

Cc1cccc(Cn2c(OC3CCN(C(=O)C4CC4)CC3)nc3c2c(=O)n(C)c(=O)n3C)c1 [Compound 34, 8-((1-(cyclopropanecarbonyl)piperidin-4-yl)oxy)-1,3-dimethyl-7-(3-methylbenzyl)-1H-purine-2,6(3H,7H)-dione]
IC50 (human ALDH2): 15300 nM | IC50 (human ALDH1B1): > 57000 nM | IC50 (hALDH1A1 [9]): 84 ± 14 nM | half-life at 1 µM [7]: 4 min

Cn1c(=O)c2c(nc(OC3CCN(C(=O)C4CC4)CC3)n2CCC2CCCCC2)n(C)c1=O [Compound 54, 7-(2-cyclohexylethyl)-8-((1-(cyclopropanecarbonyl)piperidin-4-yl)oxy)-1,3-dimethyl-1H-purine-2,6(3H,7H)-dione]
IC50 (hALDH1A1 [9]): 30 ± 12 nM | half-life at 1 µM [7]: 1 min

Cn1c(=O)c2c(nc(OC3CCN(C(=O)C4CC4)CC3)n2Cc2ccccc2)n(C)c1=O [Compound 21, 7-benzyl-8-((1-(cyclopropanecarbonyl)piperidin-4-yl)oxy)-1,3-dimethyl-1H-purine-2,6(3H,7H)-dione]
IC50 (hALDH1A1 [9]): 214 ± 28 nM | half-life at 1 µM [7]: > 30 min

Cc1cccc(Cn2c(OC3CCNCC3)nc3c2c(=O)n(C)c(=O)n3C)c1 [Compound 14, 1,3-dimethyl-7-(3-methylbenzyl)-8-(piperidin-4-yloxy)-1H-purine-2,6(3H,7H)-dione]
IC50 (hALDH1A1 [9]): 13700 ± 4900 nM | half-life at 1 µM [7]: 21 min

CCOC(=O)N1CCN(Cc2nc3c(c(=O)n(C)c(=O)n3C)n2Cc2cccc(C)c2)CC1 [Compound 5, ethyl 4-((1,3-dimethyl-7-(3-methylbenzyl)-2,6-dioxo-2,3,6,7-tetrahydro-1H-purin-8-yl)methyl)piperazine-1-carboxylate]
IC50 (human ALDH2): 2400 nM | IC50 (human ALDH1B1): > 57000 nM | IC50 (hALDH1A1 [10]): 84 nM | solubility (physchem): > 62 µg/mL | IC50 (hALDH1A1 [9]): 40 ± 5 nM | half-life at 1 µM [7]: 5 min

CCOC(=O)N1CCN(c2nc3c(c(=O)n(C)c(=O)n3C)n2Cc2cccc(C)c2)CC1 [Compound 11, Ethyl 4-(1,3-Dimethyl-7-(3-methylbenzyl)-2,6-dioxo-2,3,6,7-tetrahydro-1H-purin-8-yl)piperazine-1-carboxylate]
IC50 (hALDH1A1 [9]): 570 ± 156 nM | half-life at 1 µM [7]: 2 min

Cn1c(=O)c2[nH]c(OC3CCN(C(=O)C4CC4)CC3)nc2n(C)c1=O [Compound 22, 8-((1-(cyclopropanecarbonyl)piperidin-4-yl)oxy)-1,3-dimethyl-1H-purine-2,6(3H,7H)-dione]
IC50 (hALDH1A1 [9]): 25100 ± 5900 nM | half-life at 1 µM [7]: > 30 min

Cn1c(=O)c2c(nc(OC3CCN(C(=O)C4CC4)CC3)n2CCc2ccccc2)n(C)c1=O [Compound 39, 8-((1-(cyclopropanecarbonyl)piperidin-4-yl)oxy)-1,3-dimethyl-7-phenethyl-1H-purine-2,6(3H,7H)-dione]
IC50 (hALDH1A1 [9]): 629 ± 179 nM | half-life at 1 µM [7]: 14 min

CNC(=O)c1ccc(Oc2nc3c(c(=O)n(C)c(=O)n3C)n2Cc2cccc(C)c2)cc1 [Compound 12, 4-((1,3-dimethyl-7-(3-methylbenzyl)-2,6-dioxo-2,3,6,7-tetrahydro-1H-purin-8-yl)oxy)-N-methylbenzamide]
IC50 (human ALDH2): 6100 nM | IC50 (human ALDH1B1): > 57000 nM | solubility (physchem): < 1 µg/mL | IC50 (hALDH1A1 [9]): 57 nM | half-life at 1 µM [7]: 8 min

CS(=O)(=O)Nc1ccc(-c2coc3cc(OCc4cccc(C(=O)O)c4)ccc3c2=O)cc1 [Compound 1]
reduction of cocaine-seeking behavior (cocaine-seeking behavior): demonstrated activity in the reduction of cocaine-seeking behavior | IC50 (ALDH2): 29 nM
